Laboratory results: patent US20190038756A1, “COMPOSITIONS INCLUDING BENZENESULFONAMIDE-CONTAINING NON-STEROIDAL ANTI-INFLAMMATORY DRUGS, SILK FIBROIN, AND A GELLING AGENT AND USES THEREOF” (Cocoon Biotech Inc., priority 2016, published 2019)
In brackets after ≈: the same amount, converted by molar mass. Structures can show the parent of a compound that is named as a salt. Where two headings read alike, the source gives them in different places. One block for each compound: values may come before it.

Legend:
[1] = In vitro release study of NSAIDs from silk-PEG hydrogels (UV detection); format: physicochemical; settings: for time within which celecoxib was released / sustained release (e.g., greater than one week) using a silk-fibroin hydrogel delivery platform: silk-fibroin hydrogel; for time within which celecoxib was released: 6.5% (w/v) fibroin (FIG. 5); for release of free drug without encapsulation in silk-fibroin hydrogels: no hydrogel
Experimental: Lyophilized silk was dissolved with ultrapure water to obtain concentrations of 1.3, 3.6, 7.0, 13.0, and 23.0% (w/v). Polyethylene glycol (PEG) with molecular weights of 300 and 400 Da (PEG300 and PEG400) was diluted with ultrapure water when necessary. Celecoxib (a benzenesulfonamide-containing NSAID) and other NSAIDs which are not benzenesulfonamide-containing NSAIDs (tenoxicam, meloxicam, and lomoxicam) were dissolved with 80% (v/v) PEG400 solution to obtain low concentration solutions (<40 mg/mL) or with 100% (v/v) PEG300 to obtain high concentration solutions (>100 mg/mL). Diclofenac sodium salt (another NSAID that is not a benzenesulfonamide-containing NSAID) was dissolved in the aqueous silk solution.
The PEG or PEG/drug solution was mixed with silk solution by pipetting up and down gently and aliquoted into a 2-mL Eppendorf tube. Each tube was left at 37° C. to gel overnight (Wang et al., Acta Biomater. 12:51-61, 2015).
To the 2-mL Eppendorf tube containing fibroin-drug hydrogel, 1.95 mL of release medium was added. The release medium contained 1× phosphate buffer, pH 7.4, 0.1% (v/v) Tween-80, and 0.02% (w/v) sodium azide. The samples were incubated at 37° C. with gentle shaking. The release medium was changed after 24 hours and then approximately once every 3 days. The release medium was subjected to UV detection using a UV transparent bottom plate (Corning) at the respective wavelengths listed in Table 8. Control release medium was measured under the same condition for background subtraction. A calibration curve was generated for each drug by dissolving a known amount of each drug in the release medium, and making dilutions with the release medium.

[2] = Solubility of celecoxib in release media; format: physicochemical; settings: release medium (phosphate buffered saline with Tween-80), aqueous with cosolvent or surfactant or cyclodextrin; 1× phosphate buffered saline, 2% (v/v) Tween-80, 0.05% sodium azide
[3] = AUC at NOAEL oral dose from oral Celecoxib NDA package; settings: in vivo, oral NOAEL dose 20 mg/kg, read-out: Extrapolated AUC for 25 days
[4] = oral NOAEL dose 20 mg/kg, cited from earlier work
[5] = Gelation of silk fibroin hydrogels with varying gelling agents (25° C., 37° C., autoclave); format: physicochemical
[6] = tested on: TNF-α in human whole blood; experiment: Human whole blood activation: TNF-α by ELISA after 24 hours at 37° C., with or without LPS; format: cell-based
Source text: Acute inflammatory responses are initiated via activation of a mammal's innate immune system. Human whole blood contains the principle repertoire of immune cells responsible for initiating an innate driven inflammatory response. Activation of inflammation in human whole blood is a useful in vitro assay for assessing the inflammatory potential of silk-fibroin hydrogel constituents. For this reason, whole human blood was exposed to silk fibroin solutions, three dimensional silk fibroin hydrogels, and a variety of different gelling agents for 24 hours at 37° C. and assessed for activation of inflammation.
Lipopolysaccharide (LPS) was used as a positive stimulator of the inflammatory marker TNF-α, in whole blood. Experiments to assess the inflammatory potential of formulation constituents were conducted both in the absence and the presence of lipopolysaccharide (LPS). The later condition to assess whether any formulation constituent had the activity of potentiating a known inflammatory signal. In each experiment, plasma was collected at the end of the incubation period and analyzed for TNF-α via enzyme-linked immunosorbent assay (ELISA).

[7] = absence of celecoxib, RT curing
[8] = absence of celecoxib, autoclaving

extended time period of celecoxib release ([1]; all hydrogels of FIG. 7): ≤ 56 days | duration of sustained celecoxib release ([1]; fibroin concentrations in the hydrogel […] (w/v) to 6.5% (w/v)): sustained over two months | period over which celecoxib release occurs ([1]; hydrogel fibroin concentration 0.65% (w/v) (FIG. 6)): 15 days | period over which celecoxib release occurs ([1]; hydrogel fibroin concentration 1.3% (w/v) (FIG. 6)): 30 days | period over which celecoxib release occurs ([1]; hydrogel fibroin concentration 12.5% (w/v) (FIG. 6)): 41 days | period over which celecoxib release occurs ([1]; hydrogel fibroin concentration […] (w/v) (FIG. 6)): 41 days | period over which celecoxib release occurs ([1]; no fibroin/“free” celecoxib sample (0% silk-fibroin) (FIG. 6)): 6 days | time within which celecoxib was released ([1]; celecoxib 0.09375% (w/v)): ≤ 30 days | time within which celecoxib was released ([1]; celecoxib 0.1875% (w/v)): ≤ 30 days | time within which celecoxib was released ([1]; celecoxib 0.375% (w/v)): ≤ 75 days | duration of slow release of celecoxib at ˜40 μg a day ([1]; silk-fibroin hydrogels): more than 75 days | slow release rate of celecoxib from silk-fibroin hydrogels ([1]; silk-fibroin hydrogels): ~40 μg a day | solubility [2]: 850 µg/mL (≈ 2230 µM)
Compound: Cc1ccc(-c2cc(C(F)(F)F)nn2-c2ccc(S(N)(=O)=O)cc2)cc1 [Celecoxib, 4-[5-(4-methylphenyl)-3-(trifluoromethyl)pyrazol-1-yl]benzenesulfonamide]
AUC ([3]; Female (F)): 978 µg·h/mL | AUC ([3]; Male (M)): 468 µg·h/mL | AUC at Day 1 ([4]; Female (F)): 39.1 µg·h/mL | AUC at Day 1 ([4]; Male (M)): 18.7 µg·h/mL

time within which drug was completely released ([1]; from all the tested silk-fibroin hydrogels (FIGS. 2-4), 37° C., phosphate buffer pH 7.4, 0.1% Tween-80): ≤ 4 days | release of free drug without encapsulation in silk-fibroin hydrogels [1]: released within one day | sustained release (e.g., greater than one week) using a silk-fibroin hydrogel delivery platform [1]: could not be achieved
Compound: O=C(O)Cc1ccccc1Nc1c(Cl)cccc1Cl [Diclofenac sodium salt]

day at which cumulative release plateaued ([1]; drug with no fibroin (FIG. 1)): 2 days | day at which cumulative release plateaued ([1]; from silk-fibroin hydrogels, all tested formulations (FIG. 1), 37° C., phosphate buffer pH 7.4, 0.1% Tween-80): 6 days | release of free drug without encapsulation in silk-fibroin hydrogels [1]: released within one day | sustained release (e.g., greater than one week) using a silk-fibroin hydrogel delivery platform [1]: could not be achieved
Compound: CN1C(C(=O)Nc2ccccn2)=C(O)c2sc(Cl)cc2S1(=O)=O [Lomoxicam, lomoxicam]

Minimum gelling agent concentration eliciting gelation ([5]; 87 mg/mL celecoxib, RT): 30 % (v/v) | Minimum gelling agent concentration eliciting gelation ([5]; 87 mg/mL celecoxib, autoclave): 10 % (v/v) | Minimum gelling agent concentration eliciting gelation [5, 7]: 40 % (v/v) | Minimum gelling agent concentration eliciting gelation [5, 8]: 20 % (v/v)
Compound: CC(O)CO (stereo not drawn) [Propylene glycol]

Minimum gelling agent concentration eliciting gelation ([5]; 87 mg/mL celecoxib, curing temperature 37° C.): 40 % (v/v) | Minimum gelling agent concentration eliciting gelation ([5]; absence of celecoxib, 37° C.): 40 % (v/v) | Minimum gelling agent concentration eliciting gelation [5, 7]: 50 % (v/v) | Minimum gelling agent concentration eliciting gelation [5, 8]: 30 % (v/v)
Compound: OCC(O)CO [glycerol]

Inflammatory potential (TNF-α) in human whole blood ([6]; +/−LPS, relevant concentrations): non-inflammatory | Gelling agent concentration at which a hydrogel formed ([5]; absence of celecoxib, 37° C.): 30 % (w/v) | Gelling agent concentration at which a hydrogel formed ([5]; absence of celecoxib, RT): 30 % (w/v)
Compound: OC[C@@H](O)[C@@H](O)[C@H](O)[C@@H](O)CO [sorbitol]

Minimum gelling agent concentration eliciting gelation [5, 7]: 40 % (v/v) | Minimum gelling agent concentration eliciting gelation [5, 8]: 20 % (v/v)
Compound: Glycerol formal

Compound: silk fibroin: soluble silk fibroin samples isolated using several different degumming techniques
Inflammatory signal (TNF-α) in human whole blood ([6]; absence of co-added LPS, 24 hours at 37° C.): did not exhibit inflammatory signals beyond low baseline responses | TNF-α response in human whole blood ([6]; presence of LPS, 24 hours at 37° C.): generally reduced compared to the response to LPS alone
